Measured values published in article PMC9225989 (Signal Transduction and Targeted Therapy, 2022).

Biological target: T1, cannabinoid receptor 1 (CB1R, hCB1R) (Homo sapiens, UniProt P21554)
T1 construct: gene CNR1; purified human CB1R (hCB1R) protein that is close to its full-length (473 amino acids)
Test: biochemical
Type: binding

T1 sequence (P21554 whole entry): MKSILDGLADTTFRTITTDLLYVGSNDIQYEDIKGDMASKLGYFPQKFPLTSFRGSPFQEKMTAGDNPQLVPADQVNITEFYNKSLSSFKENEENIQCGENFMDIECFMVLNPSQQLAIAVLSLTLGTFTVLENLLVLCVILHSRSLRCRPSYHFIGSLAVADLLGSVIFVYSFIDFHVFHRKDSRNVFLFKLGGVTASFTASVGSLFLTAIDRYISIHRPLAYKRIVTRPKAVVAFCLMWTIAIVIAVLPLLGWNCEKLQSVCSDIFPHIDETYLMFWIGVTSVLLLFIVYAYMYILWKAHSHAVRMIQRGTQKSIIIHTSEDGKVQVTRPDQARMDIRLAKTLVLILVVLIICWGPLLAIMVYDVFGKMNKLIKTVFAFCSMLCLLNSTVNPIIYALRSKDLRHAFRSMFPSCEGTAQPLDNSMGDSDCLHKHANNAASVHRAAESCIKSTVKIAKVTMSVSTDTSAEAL

| SMILES | Kd [nM] |
| --- | --- |
| CN1CCN(C2=Nc3cc(Cl)ccc3Nc3ccccc32)CC1 [Clz, clozapine] | 2.65 |
| Cc1cc2c(s1)Nc1ccccc1N=C2N1CCN(C)CC1 [Olz, olanzapine] | 2.53 |
